Experimental data published in ChEMBL document CHEMBL1201862, “PubChem BioAssay data set” (2004).
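Compound exposure: 48 hours, 5 concentrations, 96-well plates. GI50 is the concentration that inhibits growth by half.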 Activity calls are given as the source filed them. Rule as the data show it: active = GI50 up to about 1.1 µM and inactive = higher.

Tests used:
Assay in all cases: NCI anticancer screen, dose series, 48 h
HCT-116 = test system: HCT-116
HL-60 = test system: HL-60
UACC-257 = test system: UACC-257
A549 = test system: A549
SK-OV-3 = test system: SK-OV-3
SF-539 = test system: SF-539
SR = test system: SR
NCI/ADR-RES = test system: NCI/ADR-RES
T47D = test system: T47D
K562 = test system: K562
MDA-N = test system: MDA-N
HOP-62 = test system: HOP-62
COLO 205 = test system: COLO 205
SW-620 = test system: SW-620
SNB-19 = test system: SNB-19
UACC-62 = test system: UACC-62
NCI-H23 = test system: NCI-H23
OVCAR-8 = test system: OVCAR-8
PC-3 = test system: PC-3
SNB-75 = test system: SNB-75

| Compound | GI50 (HCT-116) | GI50 (HL-60) | GI50 (UACC-257) | GI50 (A549) | GI50 (SK-OV-3) | GI50 (SF-539) | GI50 (SR) | GI50 (NCI/ADR-RES) | GI50 (T47D) | GI50 (K562) | GI50 (MDA-N) | GI50 (HOP-62) | GI50 (COLO 205) | GI50 (SW-620) | GI50 (SNB-19) | GI50 (UACC-62) | GI50 (NCI-H23) | GI50 (OVCAR-8) | GI50 (PC-3) | GI50 (SNB-75) |
| --- | --- | --- | --- | --- | --- | --- | --- | --- | --- | --- | --- | --- | --- | --- | --- | --- | --- | --- | --- | --- |
| Cc1nnc2sc(-c3ccc(-c4ccccc4Cl)o3)nn12 | 19.8 µM (inactive) | 19.8 µM (inactive) | 44.5 µM (inactive) | 34.8 µM (inactive) | 57.9 µM (inactive) | 19.7 µM (inactive) | 19 µM (inactive) | 21.9 µM (inactive) | 20.9 µM (inactive) | 21.2 µM (inactive) | 17.9 µM (inactive) | > 100 µM (inactive) | 38.5 µM (inactive) | 20.9 µM (inactive) | 40.5 µM (inactive) | 35.2 µM (inactive) | 24.2 µM (inactive) | 19.8 µM (inactive) | 37.2 µM (inactive) | – |
| CCOC(=O)c1c(C)cc(=O)n2c1[nH]c1ccccc12 | 57.1 µM (inactive) | > 100 µM (inactive) | > 100 µM (inactive) | 82.2 µM (inactive) | > 100 µM (inactive) | 31 µM (inactive) | – | > 100 µM (inactive) | > 100 µM (inactive) | 50.9 µM (inactive) | 64 µM (inactive) | – | > 100 µM (inactive) | > 100 µM (inactive) | 88.3 µM (inactive) | > 100 µM (inactive) | > 100 µM (inactive) | > 100 µM (inactive) | > 100 µM (inactive) | – |
| CC(Nc1ccc(Cl)cc1)c1ccncc1 (stereo unspecified) | 53.3 µM (inactive) | – | 55.7 µM (inactive) | > 100 µM (inactive) | 0.0315 µM (active) | > 100 µM (inactive) | – | 61.5 µM (inactive) | 42.3 µM (inactive) | 75.3 µM (inactive) | > 100 µM (inactive) | > 100 µM (inactive) | > 100 µM (inactive) | > 100 µM (inactive) | > 100 µM (inactive) | – | 56.8 µM (inactive) | > 100 µM (inactive) | 64.1 µM (inactive) | > 100 µM (inactive) |
| CN(CCN1CCCC1)C1CCc2cc(Cl)c(Cl)cc2C1 (stereo unspecified) | 12.5 µM (inactive) | 12.6 µM (inactive) | 16.4 µM (inactive) | 16.6 µM (inactive) | 17.5 µM (inactive) | 16.1 µM (inactive) | 20.5 µM (inactive) | 12.4 µM (inactive) | 6.37 µM (inactive) | 21.8 µM (inactive) | 9.2 µM (inactive) | 17.4 µM (inactive) | 3.6 µM (inactive) | 23.9 µM (inactive) | 19.7 µM (inactive) | 5.71 µM (inactive) | 15 µM (inactive) | 16.2 µM (inactive) | 20 µM (inactive) | – |
| C=CCCC1(CC(Sc2ccccc2)P(=O)(c2ccccc2)c2ccccc2)OCCO1 (stereo unspecified) | > 10 µM (inactive) | > 10 µM (inactive) | > 10 µM (inactive) | > 10 µM (inactive) | > 10 µM (inactive) | > 10 µM (inactive) | > 10 µM (inactive) | > 10 µM (inactive) | > 10 µM (inactive) | > 10 µM (inactive) | > 10 µM (inactive) | > 10 µM (inactive) | > 10 µM (inactive) | > 10 µM (inactive) | > 10 µM (inactive) | > 10 µM (inactive) | > 10 µM (inactive) | > 10 µM (inactive) | > 10 µM (inactive) | – |
| O=C(NNC(=S)NCc1ccccc1)c1csc(NC(=S)NC2CCCCC2)n1 | 22.3 µM (inactive) | > 100 µM (inactive) | 18.6 µM (inactive) | 37.2 µM (inactive) | 50.6 µM (inactive) | 38 µM (inactive) | 31.5 µM (inactive) | 31.3 µM (inactive) | 30 µM (inactive) | – | 28.9 µM (inactive) | 64.1 µM (inactive) | 18.2 µM (inactive) | 32.5 µM (inactive) | 76.6 µM (inactive) | 40.1 µM (inactive) | 43 µM (inactive) | 39.4 µM (inactive) | 37.3 µM (inactive) | – |
| CC1=NNC(=O)[C@H]2[C@H]1CCC1[C@@H]2CC[C@]2(C)[C@@H](O)CC[C@@H]12 (stereo partly specified) | > 100 µM (inactive) | > 100 µM (inactive) | > 100 µM (inactive) | > 100 µM (inactive) | > 100 µM (inactive) | > 100 µM (inactive) | – | > 100 µM (inactive) | > 100 µM (inactive) | > 100 µM (inactive) | > 100 µM (inactive) | > 100 µM (inactive) | > 100 µM (inactive) | > 100 µM (inactive) | > 100 µM (inactive) | > 100 µM (inactive) | > 100 µM (inactive) | > 100 µM (inactive) | > 100 µM (inactive) | 12.6 µM (inactive) |
| Cn1c(=O)c2c(nc3sc4ccccc4c(=O)n32)n(C)c1=O | > 100 µM (inactive) | > 100 µM (inactive) | > 100 µM (inactive) | – | > 100 µM (inactive) | > 100 µM (inactive) | – | > 100 µM (inactive) | > 100 µM (inactive) | > 100 µM (inactive) | > 100 µM (inactive) | > 100 µM (inactive) | > 100 µM (inactive) | > 100 µM (inactive) | > 100 µM (inactive) | > 100 µM (inactive) | > 100 µM (inactive) | > 100 µM (inactive) | > 100 µM (inactive) | 68.4 µM (inactive) |
| CC(C)Oc1ccc2c(c1)OCC1Cc3ccccc3OC21 (stereo unspecified) | > 100 µM (inactive) | > 100 µM (inactive) | 33.7 µM (inactive) | > 100 µM (inactive) | > 100 µM (inactive) | > 100 µM (inactive) | > 100 µM (inactive) | 71.9 µM (inactive) | 55.2 µM (inactive) | 88.1 µM (inactive) | 49.2 µM (inactive) | > 100 µM (inactive) | > 10 µM (inactive) | > 100 µM (inactive) | – | > 100 µM (inactive) | 89.9 µM (inactive) | > 100 µM (inactive) | > 100 µM (inactive) | – |
| CCOC(=O)C1(NC(=O)OC(C)(C)C)CCc2[nH]oc(=O)c2C1 (stereo unspecified) | > 100 µM (inactive) | > 100 µM (inactive) | > 100 µM (inactive) | > 100 µM (inactive) | > 100 µM (inactive) | > 100 µM (inactive) | – | > 100 µM (inactive) | > 100 µM (inactive) | > 100 µM (inactive) | > 100 µM (inactive) | > 100 µM (inactive) | > 100 µM (inactive) | > 100 µM (inactive) | > 100 µM (inactive) | > 100 µM (inactive) | > 100 µM (inactive) | > 100 µM (inactive) | > 100 µM (inactive) | > 100 µM (inactive) |
| COC(=O)C1=C(OC)C(=P2(c3ccccc3)CC(c3ccccc3)=C2c2ccccc2)C(C(=O)OC)=C1C(=O)OC (stereo unspecified) | 22.8 µM (inactive) | 0.968 µM (active) | > 71.1 µM (inactive) | 26.4 µM (inactive) | > 61.5 µM (inactive) | 23.6 µM (inactive) | – | > 82.4 µM (inactive) | 15.5 µM (inactive) | 4.58 µM (inactive) | 38 µM (inactive) | > 100 µM (inactive) | 18.8 µM (inactive) | 14.6 µM (inactive) | 67.1 µM (inactive) | 61.2 µM (inactive) | 33.8 µM (inactive) | > 95.7 µM (inactive) | 10.8 µM (inactive) | 41.6 µM (inactive) |
| Cc1cc(OC(=O)Nc2cccc3ccccc23)c(C(C)C)cc1C(=S)Nc1ccccc1 | 17.8 µM (inactive) | 2.42 µM (inactive) | 18.7 µM (inactive) | 21.8 µM (inactive) | 10.4 µM (inactive) | 16.7 µM (inactive) | 6.49 µM (inactive) | 16.6 µM (inactive) | 8.17 µM (inactive) | 5.77 µM (inactive) | 17.9 µM (inactive) | 16.6 µM (inactive) | 19.6 µM (inactive) | 16.8 µM (inactive) | 27.2 µM (inactive) | 12.5 µM (inactive) | 15.7 µM (inactive) | 12.7 µM (inactive) | 15.7 µM (inactive) | – |
| CC(C)(C)C1CCC2c3c([nH]c4ccccc34)C3C(=O)N(c4ccc5c(c4)C(=O)c4ccccc4C5=O)C(=O)C3C2C1 (stereo unspecified) | > 100 µM (inactive) | > 100 µM (inactive) | > 100 µM (inactive) | > 100 µM (inactive) | > 100 µM (inactive) | > 100 µM (inactive) | > 100 µM (inactive) | > 100 µM (inactive) | > 100 µM (inactive) | > 100 µM (inactive) | > 100 µM (inactive) | > 100 µM (inactive) | > 100 µM (inactive) | > 100 µM (inactive) | > 100 µM (inactive) | > 100 µM (inactive) | > 100 µM (inactive) | > 100 µM (inactive) | > 100 µM (inactive) | – |
| COc1ccc2c(c1)[nH]c1c3ccc(OC)cc3oc(=O)c21 | > 100 µM (inactive) | 0.867 µM (active) | > 100 µM (inactive) | > 100 µM (inactive) | > 100 µM (inactive) | > 100 µM (inactive) | – | > 100 µM (inactive) | > 100 µM (inactive) | > 100 µM (inactive) | 0.9 µM (active) | > 100 µM (inactive) | > 100 µM (inactive) | > 100 µM (inactive) | > 100 µM (inactive) | > 100 µM (inactive) | > 100 µM (inactive) | > 100 µM (inactive) | > 100 µM (inactive) | 25.1 µM (inactive) |
| CCSC1=N/C(=C\c2ccc(N(C)C)cc2)C(Cl)=N1 | > 100 µM (inactive) | > 100 µM (inactive) | > 100 µM (inactive) | > 100 µM (inactive) | > 100 µM (inactive) | – | – | > 100 µM (inactive) | 37.7 µM (inactive) | – | > 100 µM (inactive) | > 100 µM (inactive) | > 100 µM (inactive) | > 100 µM (inactive) | > 100 µM (inactive) | > 100 µM (inactive) | > 100 µM (inactive) | > 100 µM (inactive) | > 100 µM (inactive) | > 100 µM (inactive) |
